Drawing on PubChem BioAssay (NCI), this text covers TGI and GI50 for 13 compounds.

Among the test systems are TK-10 renal; SNB-75 CNS; OVCAR-8 ovarian; MOLT-4 leukemia; SN12C renal; SK-OV-3 ovarian; HCT-15 colon; A549 NSCLC; MDA-MB-435; HS 578T breast; OVCAR-4 ovarian.
Common to all, as to test: NCI-60 cell line screen, 48 h

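Grown in 96-well plates, cells were treated for 48 hours with each compound at five concentrations. Insufficient inhibition: endpoint recorded as highest concentration tested. GI50 = concentration required for 50% inhibition of growth. TGI: concentration producing complete growth inhibition.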

Take `COc1cccc(-c2nccc3c(OCc4ccccc4)c(OC)c(OC)cc23)c1`: the TGI in the experiment with TK-10 renal, in the experiment with SNB-75 CNS, with OVCAR-8 ovarian, in the experiment on MOLT-4 leukemia, in the experiment with SN12C renal and in the experiment on SK-OV-3 ovarian was above 100 µM each time. Also, the TGI in the experiment on HCT-15 colon and with A549 NSCLC was above 100 µM throughout.

Regarding `Cc1c2ccccc2c(C)n2c1nc1ccccc12`, the TGI with TK-10 renal was 44.4 µM; with SNB-75 CNS, 27.7 µM; in the experiment on OVCAR-8 ovarian it was above 100 µM; in the experiment on MOLT-4 leukemia, above 100 µM; in the experiment on SN12C renal it was 30.9 µM; in the experiment on MDA-MB-435 it was 19.1 µM. The TGI in the experiment on HS 578T breast was found to be 54.5 µM; in the experiment on SK-OV-3 ovarian, 27.1 µM; in the experiment on HCT-15 colon, 65.7 µM; in the experiment on A549 NSCLC, 23.2 µM.

With `CC(=O)OC(C)(C)CCC(=O)[C@](C)(O)[C@H]1[C@H](O)C[C@@]2(C)[C@@H]3CC=C4C(C)=C(OC5OC(CO)C(O)C(O)C5O)C(=O)C[C@@H]4[C@]3(C)C(=O)C[C@]12C` (some centres undefined), the TGI in the experiment on OVCAR-4 ovarian, in the experiment with TK-10 renal, in the experiment with SNB-75 CNS, with OVCAR-8 ovarian, with MOLT-4 leukemia and in the experiment on SN12C renal was above 100 µM throughout. For the same compound, the TGI in the experiment on MDA-MB-435, with SK-OV-3 ovarian, in the experiment with HCT-15 colon and with A549 NSCLC was above 100 µM in each case.

On to `CC1=CCC[C@H]2[C@](C)(CC3=CC(=O)C(Sc4ccccc4)=CC3=O)[C@@H](C)CC[C@]12C`, for which the TGI in the experiment on OVCAR-4 ovarian was found to be 43.7 µM; in the experiment with SNB-75 CNS, 54.5 µM; in the experiment with OVCAR-8 ovarian, 26.4 µM; in the experiment on MOLT-4 leukemia, 6.03 µM; with SN12C renal, 31.6 µM; in the experiment on MDA-MB-435, 43.5 µM. Besides, the TGI in the experiment on HCT-15 colon stood at 35.7 µM; in the experiment on A549 NSCLC it was 33.3 µM. Moreover, the GI50 was 2.59 µM in the experiment on MOLT-4 leukemia and 17.1 µM in the experiment on MDA-MB-435.

On to `O=C(c1ccc(O)c([N+](=O)[O-])c1)c1ccc(O)c([N+](=O)[O-])c1`, for which the TGI was above 100 µM in the experiment on OVCAR-4 ovarian; above 100 µM with TK-10 renal; 85.7 µM in the experiment on SNB-75 CNS; above 100 µM in the experiment on OVCAR-8 ovarian; above 100 µM in the experiment on SN12C renal; 70.1 µM in the experiment with MDA-MB-435. Moreover, the TGI with HS 578T breast, with SK-OV-3 ovarian, in the experiment on HCT-15 colon and with A549 NSCLC was above 100 µM throughout.

On to `CN[C@@H](C)[C@@H](O)c1ccccc1`, for which the TGI with OVCAR-4 ovarian, in the experiment on TK-10 renal, in the experiment with SNB-75 CNS, with OVCAR-8 ovarian, in the experiment with MOLT-4 leukemia and in the experiment with SN12C renal was above 100 µM each time. The TGI with MDA-MB-435, in the experiment with HS 578T breast, in the experiment with HCT-15 colon and in the experiment with A549 NSCLC was above 100 µM throughout.

For the compound `Clc1ccc(C2CC(c3cccc(Nc4ccncc4)c3)=NN2c2cc(Cl)cc(Cl)c2)cc1` (centres undefined), the GI50 is 1.8 µM in the experiment with OVCAR-4 ovarian; 1.93 µM in the experiment with TK-10 renal; 1.4 µM in the experiment with SNB-75 CNS; 2.17 µM with MOLT-4 leukemia; 1.73 µM in the experiment with SN12C renal; 1.71 µM in the experiment with MDA-MB-435. In addition, the GI50 is 1.89 µM in the experiment on SK-OV-3 ovarian and 1.77 µM in the experiment with HCT-15 colon. The TGI in the experiment on OVCAR-4 ovarian was found to be 3.39 µM; in the experiment with TK-10 renal, 3.7 µM; with SNB-75 CNS, 2.93 µM; with MOLT-4 leukemia, 5.01 µM; in the experiment on SN12C renal it was 3.29 µM; with MDA-MB-435, 3.16 µM. Further, the TGI with SK-OV-3 ovarian amounted to 3.83 µM; in the experiment on HCT-15 colon it was 3.45 µM.

Turning to `C[n+]1c2ccccc2c(/C=N\NS(=O)(=O)c2ccc(Cl)cc2)c2ccccc21`, the TGI in the experiment with OVCAR-4 ovarian, with TK-10 renal, with SNB-75 CNS, in the experiment with OVCAR-8 ovarian, with MOLT-4 leukemia and in the experiment with SN12C renal was above 100 µM throughout. In addition, the TGI in the experiment with SK-OV-3 ovarian, with HCT-15 colon and in the experiment on A549 NSCLC was above 100 µM throughout.

`CC(C)(C)OC(=O)N1[C@@H]2Cc3ccc(N)cc3[C@@]1(C)c1ccccc12`: the TGI in the experiment on OVCAR-4 ovarian was above 100 µM; with TK-10 renal it was above 100 µM; with MOLT-4 leukemia, 48.5 µM; with SN12C renal it was 30.7 µM; in the experiment with MDA-MB-435 it was 33.3 µM; with HS 578T breast, above 100 µM. Moreover, the figures for the TGI in the experiment with SK-OV-3 ovarian, in the experiment on HCT-15 colon and with A549 NSCLC were above 100 µM, 32.9 µM and above 100 µM, respectively.

As to `N[C@H](CCC(=O)NCP(=O)(O)O)C(=O)O`, the TGI was 25.6 µM in the experiment with TK-10 renal; above 100 µM with OVCAR-8 ovarian; above 100 µM in the experiment with MOLT-4 leukemia; above 100 µM in the experiment on SN12C renal; above 100 µM with MDA-MB-435; above 100 µM in the experiment with HS 578T breast. In addition, the TGI in the experiment on HCT-15 colon and in the experiment with A549 NSCLC was above 100 µM in each case.

Regarding `CCN(CC)CCOc1ccc(C(O)(Cc2ccc(OC)cc2)c2ccccc2)cc1` (centres undefined), the TGI is 75.3 µM with OVCAR-4 ovarian; 76.4 µM in the experiment on TK-10 renal; 27.6 µM in the experiment on SNB-75 CNS; above 100 µM in the experiment on OVCAR-8 ovarian; 38.4 µM in the experiment with MOLT-4 leukemia; above 100 µM in the experiment with SN12C renal. Further, the TGI with SK-OV-3 ovarian was 57.9 µM; in the experiment on HCT-15 colon, 51 µM; in the experiment with A549 NSCLC, 48.5 µM.

`O=C1C2=C(SCCS2)C(=O)c2c(Sc3ccc(Cl)cc3)c(Sc3ccc(Cl)cc3)c(Sc3ccc(Cl)cc3)c(Sc3ccc(Cl)cc3)c21`: the TGI in the experiment with OVCAR-4 ovarian is above 100 µM; with SNB-75 CNS, above 100 µM; in the experiment with OVCAR-8 ovarian it was above 100 µM; in the experiment with MOLT-4 leukemia it was 30.9 µM; with SN12C renal, above 100 µM; in the experiment on MDA-MB-435 it was above 100 µM. The TGI in the experiment on HS 578T breast, in the experiment with SK-OV-3 ovarian, in the experiment on HCT-15 colon and with A549 NSCLC was above 100 µM throughout.

With `COP(=O)(O)C(N)Cc1c[nH]c2ccccc12` (centres undefined), the TGI in the experiment on OVCAR-4 ovarian, in the experiment on TK-10 renal, in the experiment with OVCAR-8 ovarian, in the experiment on MOLT-4 leukemia, in the experiment with SN12C renal and in the experiment on MDA-MB-435 was above 100 µM each time. Moreover, the TGI in the experiment on HS 578T breast, in the experiment on SK-OV-3 ovarian, with HCT-15 colon and with A549 NSCLC was above 100 µM throughout.
